Data reported in patent US9969699B2, “Cancer cell growth inhibitor, anticancer agent, and method for screening same, as well as novel compound” (Microbial Chemistry Research Foundation, priority 2014, dated 2018).

What was measured:
NIH3T3/EGFR vIII cells = assay: 3D cell culture step (environment without adhesion scaffold), proliferation of NIH3T3/EGFR vIII cells; format: cell-based, mouse
NIH3T3 cells = assay: 2D cell culture step (environment with adhesion scaffold), proliferation of NIH3T3 cells; format: cell-based; conditions: Mus musculus, 72 h; NIH3T3 cells, TC-treated plate, 3 days, […]-GLO; read-out: IC50 2D cell culture step
Protocol: Note that, as a negative control, the NIH3T3 cells at 2×10^3 cells/100 were seeded to the same plate in a volume of 100 μL per well and cultured at 37° C. in the presence of 5% CO2 for 3 days without the addition of the test substance.
Note that, Dulbecco's Modified Eagle Medium supplemented with 5% FBS was used for the culture.
A cell proliferation inhibition rate in the 2D cell culture step was calculated according to (Expression 2) below. Cell proliferation inhibition rate(%)=(1−D/E)×100 (Expression 2)
In the (Expression 2), D denotes the number of viable NIH3T3 cells when the test substance was added, and E denotes the number of viable NIH3T3 cells when the test substance was not added.

NIH3T3/EGFRWT cells = assay: 3D cell culture step, NIH3T3/EGFRWT cells in EGF-including medium; format: cell-based, mouse; conditions: Test Example 3, NIH3T3/EGFRWT cells, EGF-including medium
Protocol: (§1) After the 3 days of culture, the number of viable cells was counted by […]-GLO (trademark) Luminescent Cell Viability Assay (available from Promega), which was a method for quantitating ATP in viable cells. A cell proliferation inhibition rate in the 3D cell culture step was calculated according to (Expression 3) below. Cell proliferation inhibition rate(%)=(1−X/Y)×100 (Expression 3)
(§2) In the (Expression 3), X denotes the number of viable cells when the test substance was added, and Y denotes the number of viable cells when the test substance was not added.

U251 cells = assay: 3D cell culture step, EGFR vIII gene non-expressing brain tumor cells U251; format: cell-based; conditions: Test Example 3, U251 cells
Protocol: (§3) The following 3 brain tumor cells were used as the EGFR vIII gene non-expressing cells. • U251 cells (available from ATCC) • U87MG cells (available from ATCC) • KS-1 cells (available from ATCC) <3D Cell Culture Step>
as §1, §2

U87MG cells = assay: 3D cell culture step, EGFR vIII gene non-expressing brain tumor cells U87MG; format: cell-based; conditions: Test Example 3, U87MG cells
Protocol: as §3, §1, §2

KS-1 cells = assay: 3D cell culture step, EGFR vIII gene non-expressing brain tumor cells KS-1; format: cell-based; conditions: Test Example 3, KS-1 cells
Protocol: as §3, §1, §2

Question: Which IC50 (NIH3T3/EGFR vIII cells; Mus musculus, 72 h, NIH3T3/EGFR vIII cells, Ultra Low Attachment plate, 3 days, […]-GLO) does the source give for COc1cc2ncnc(Nc3cccc(Cl)c3)c2cc1OC [AG1478, reference compound] here?
Answer: 1 µM

Question: What about the “inhibiting activity against scaffold-independent proliferation capacity” value (NIH3T3/EGFR vIII cells; Test Example 3, NIH3T3/EGFR vIII cells) of the same compound?
Answer: exhibited an inhibiting activity

Question: What about the “inhibition of proliferation of NIH3T3 cells expressing EGFR mutant vIII in the 3D cell culture step” value (NIH3T3/EGFR vIII cells; result in words from Table 1) of the same compound?
Answer: inhibited proliferation

Question: What about the IC50 (NIH3T3 cells) of the same compound?
Answer: 50 µM

Question: And the “inhibiting activity against scaffold-independent proliferation capacity” value (NIH3T3/EGFRWT cells)?
Answer: exhibited an inhibiting activity

Question: And the “inhibiting activity against scaffold-independent proliferation capacity” value (U251 cells)?
Answer: did not exhibit an inhibiting activity

Question: And the “inhibiting activity against scaffold-independent proliferation capacity” value (U87MG cells)?
Answer: did not exhibit an inhibiting activity

Question: What about the “inhibiting activity against scaffold-independent proliferation capacity” value (KS-1 cells) of the same compound?
Answer: did not exhibit an inhibiting activity
